Drawing on PMC11314561, “Design and Synthesis of Novel Aminoindazole-pyrrolo[2,3-b]pyridine Inhibitors of IKKα That Selectively Perturb Cellular Non-Canonical NF-κB Signalling” (Molecules, 2024), this text covers inhibition for 3 compounds.

Common to all, as to experiment: kinase panel
What all share (assay type): biochemical

One experiment has as its target ALK(h) (Homo sapiens, UniProt Q9UM73). In a few lines: (§1)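 % inhibition read-out; kinome panel of 231 kinases; one analogue run on a selected 98-kinase subset only.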
The target of a further experiment is FGFR3(h) (Homo sapiens, UniProt P22607). In a few lines:
as §1

Another experiment deals with cSRC(h) (Homo sapiens, UniProt P12931). The gist of the method:
as §1

A further experiment has as its target Plk1(h) (Homo sapiens, UniProt P53350). In a few lines: as §1
In the next experiment the target is T1, SAPK4(h) (Homo sapiens, UniProt O15264).
T1 sequence (O15264 1-365): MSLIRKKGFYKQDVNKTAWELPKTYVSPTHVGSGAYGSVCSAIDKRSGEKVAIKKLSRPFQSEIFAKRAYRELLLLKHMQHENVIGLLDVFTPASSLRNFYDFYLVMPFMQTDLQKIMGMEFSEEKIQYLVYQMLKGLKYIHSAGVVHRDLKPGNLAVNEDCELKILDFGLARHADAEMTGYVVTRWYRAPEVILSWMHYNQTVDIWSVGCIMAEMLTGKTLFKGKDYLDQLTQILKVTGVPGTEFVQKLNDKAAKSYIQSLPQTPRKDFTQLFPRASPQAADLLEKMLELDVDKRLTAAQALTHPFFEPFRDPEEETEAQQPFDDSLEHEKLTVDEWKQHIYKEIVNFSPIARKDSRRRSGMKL
In a few lines: as §1

A further experiment addresses ACK1(h) (Homo sapiens, UniProt Q07912). In a few lines: as §1
The next experiment has as its target T2, PDK1(h) (Homo sapiens, UniProt O15530).
T2 sequence (O15530 1-556): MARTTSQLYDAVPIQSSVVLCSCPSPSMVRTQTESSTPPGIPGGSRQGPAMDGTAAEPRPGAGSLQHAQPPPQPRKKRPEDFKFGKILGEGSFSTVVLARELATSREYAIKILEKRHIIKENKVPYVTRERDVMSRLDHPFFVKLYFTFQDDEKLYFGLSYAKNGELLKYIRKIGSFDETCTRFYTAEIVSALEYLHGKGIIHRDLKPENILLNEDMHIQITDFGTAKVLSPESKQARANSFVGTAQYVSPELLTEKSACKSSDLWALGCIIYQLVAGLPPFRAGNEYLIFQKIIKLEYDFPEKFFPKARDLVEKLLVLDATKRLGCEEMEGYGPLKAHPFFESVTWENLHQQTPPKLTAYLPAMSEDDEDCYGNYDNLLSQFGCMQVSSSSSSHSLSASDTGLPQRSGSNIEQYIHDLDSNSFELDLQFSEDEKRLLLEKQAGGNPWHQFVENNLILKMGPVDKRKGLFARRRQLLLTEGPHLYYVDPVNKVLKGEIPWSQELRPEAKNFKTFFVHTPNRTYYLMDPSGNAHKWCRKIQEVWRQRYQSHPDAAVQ
The gist of the method: as §1

The target in the next experiment is Lck(h) (Homo sapiens, UniProt P06239). In a few lines: as §1
The target in another experiment is CaMKIδ(h) (Homo sapiens, UniProt Q8IU85). In a few lines: as §1
In a further experiment the target is ROCK-I(h) (Homo sapiens, UniProt Q13464). The gist of the method:
as §1

Another experiment addresses CDK2/cyclinE(h) (Homo sapiens, UniProt P24941). The gist of the method:
as §1

In a further experiment the target is T3, NEK2(h) (Homo sapiens, UniProt P51955).
T3 sequence (P51955 1-445): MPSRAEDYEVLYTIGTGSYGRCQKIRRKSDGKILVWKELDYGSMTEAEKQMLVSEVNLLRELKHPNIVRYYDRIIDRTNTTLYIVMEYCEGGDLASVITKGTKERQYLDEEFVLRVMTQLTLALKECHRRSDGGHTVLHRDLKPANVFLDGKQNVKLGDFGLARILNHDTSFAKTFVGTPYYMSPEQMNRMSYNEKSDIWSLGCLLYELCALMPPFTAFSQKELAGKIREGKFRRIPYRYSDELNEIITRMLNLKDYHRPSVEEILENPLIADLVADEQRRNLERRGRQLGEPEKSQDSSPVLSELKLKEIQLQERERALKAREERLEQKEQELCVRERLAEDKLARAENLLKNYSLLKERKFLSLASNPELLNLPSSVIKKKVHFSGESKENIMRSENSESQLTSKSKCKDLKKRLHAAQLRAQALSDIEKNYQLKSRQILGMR
The gist of the method:
as §1

In a further experiment the target is Flt1(h) (Homo sapiens, UniProt P17948). The gist of the method:
as §1

The target in another experiment is T4, SAPK3(h) (Homo sapiens, UniProt P53778).
T4 sequence (P53778 1-367): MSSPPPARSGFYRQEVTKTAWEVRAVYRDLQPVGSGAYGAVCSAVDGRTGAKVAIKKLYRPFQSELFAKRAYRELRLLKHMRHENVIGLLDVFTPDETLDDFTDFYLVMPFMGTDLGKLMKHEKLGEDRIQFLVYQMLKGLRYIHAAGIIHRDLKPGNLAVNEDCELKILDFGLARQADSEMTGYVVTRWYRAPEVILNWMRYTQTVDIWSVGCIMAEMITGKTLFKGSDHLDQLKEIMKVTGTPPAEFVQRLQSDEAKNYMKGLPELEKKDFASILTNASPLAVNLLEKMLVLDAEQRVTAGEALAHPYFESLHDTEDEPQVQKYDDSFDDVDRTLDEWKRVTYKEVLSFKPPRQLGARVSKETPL
The gist of the method:
as §1

A word on the inhibition: it is the change of the read-out against control, counted positive when it falls.

Sequence of Plk1(h) (P53350 whole entry): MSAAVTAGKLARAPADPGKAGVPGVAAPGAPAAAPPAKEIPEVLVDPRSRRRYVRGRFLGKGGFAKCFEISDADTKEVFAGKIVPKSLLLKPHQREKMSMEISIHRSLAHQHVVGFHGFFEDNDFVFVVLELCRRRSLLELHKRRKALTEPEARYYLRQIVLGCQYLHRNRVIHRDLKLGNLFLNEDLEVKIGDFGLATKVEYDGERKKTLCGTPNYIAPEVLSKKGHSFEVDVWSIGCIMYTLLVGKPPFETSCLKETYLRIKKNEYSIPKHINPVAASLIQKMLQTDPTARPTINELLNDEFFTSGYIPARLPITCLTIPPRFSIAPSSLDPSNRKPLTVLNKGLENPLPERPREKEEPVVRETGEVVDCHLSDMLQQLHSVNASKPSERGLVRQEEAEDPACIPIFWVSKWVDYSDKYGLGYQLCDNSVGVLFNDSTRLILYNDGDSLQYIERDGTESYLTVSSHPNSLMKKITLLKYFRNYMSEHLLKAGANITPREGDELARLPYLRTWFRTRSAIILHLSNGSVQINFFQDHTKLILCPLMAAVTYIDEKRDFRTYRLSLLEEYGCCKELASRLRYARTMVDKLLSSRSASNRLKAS
Sequence of Lck(h) (P06239 whole entry): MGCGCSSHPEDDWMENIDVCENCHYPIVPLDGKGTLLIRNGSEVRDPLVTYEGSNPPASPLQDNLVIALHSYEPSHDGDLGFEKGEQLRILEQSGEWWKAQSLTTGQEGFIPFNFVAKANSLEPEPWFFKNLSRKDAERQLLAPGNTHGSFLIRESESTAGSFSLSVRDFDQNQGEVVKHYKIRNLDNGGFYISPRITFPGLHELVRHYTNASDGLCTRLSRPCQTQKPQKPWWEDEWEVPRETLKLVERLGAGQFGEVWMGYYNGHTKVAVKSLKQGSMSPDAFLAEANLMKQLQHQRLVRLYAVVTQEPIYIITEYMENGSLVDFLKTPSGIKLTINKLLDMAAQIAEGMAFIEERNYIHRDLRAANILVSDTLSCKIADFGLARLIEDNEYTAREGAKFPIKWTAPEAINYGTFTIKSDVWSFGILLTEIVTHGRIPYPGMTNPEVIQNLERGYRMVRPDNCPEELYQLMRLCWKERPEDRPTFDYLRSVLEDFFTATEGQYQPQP
Sequence of ACK1(h) (Q07912 whole entry): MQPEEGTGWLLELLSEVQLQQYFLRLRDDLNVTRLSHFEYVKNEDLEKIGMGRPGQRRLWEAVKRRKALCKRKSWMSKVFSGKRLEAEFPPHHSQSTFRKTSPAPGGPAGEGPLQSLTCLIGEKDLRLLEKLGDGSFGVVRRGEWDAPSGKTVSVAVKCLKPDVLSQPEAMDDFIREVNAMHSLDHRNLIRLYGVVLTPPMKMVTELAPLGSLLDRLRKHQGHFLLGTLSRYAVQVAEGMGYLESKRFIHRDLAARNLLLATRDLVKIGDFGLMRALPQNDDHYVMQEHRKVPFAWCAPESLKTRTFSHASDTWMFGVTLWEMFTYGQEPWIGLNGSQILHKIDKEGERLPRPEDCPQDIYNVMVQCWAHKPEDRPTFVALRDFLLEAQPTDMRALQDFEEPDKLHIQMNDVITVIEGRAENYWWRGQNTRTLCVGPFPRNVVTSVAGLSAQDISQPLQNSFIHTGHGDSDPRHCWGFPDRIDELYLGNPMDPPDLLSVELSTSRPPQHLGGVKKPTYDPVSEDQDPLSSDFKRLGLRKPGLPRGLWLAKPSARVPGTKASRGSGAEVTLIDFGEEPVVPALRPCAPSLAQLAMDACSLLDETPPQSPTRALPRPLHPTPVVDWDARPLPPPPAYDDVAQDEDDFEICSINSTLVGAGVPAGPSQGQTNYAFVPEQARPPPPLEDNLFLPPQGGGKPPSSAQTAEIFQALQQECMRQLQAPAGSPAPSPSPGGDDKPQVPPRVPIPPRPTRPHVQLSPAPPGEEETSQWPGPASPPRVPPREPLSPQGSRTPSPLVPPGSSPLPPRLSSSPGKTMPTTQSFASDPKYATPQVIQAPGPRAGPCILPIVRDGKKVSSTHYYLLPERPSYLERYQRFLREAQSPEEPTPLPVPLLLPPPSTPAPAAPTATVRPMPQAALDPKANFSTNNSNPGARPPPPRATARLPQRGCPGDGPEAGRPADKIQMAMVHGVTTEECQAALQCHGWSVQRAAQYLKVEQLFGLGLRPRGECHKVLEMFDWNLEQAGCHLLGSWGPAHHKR
Sequence of ALK(h) (Q9UM73 19-1620): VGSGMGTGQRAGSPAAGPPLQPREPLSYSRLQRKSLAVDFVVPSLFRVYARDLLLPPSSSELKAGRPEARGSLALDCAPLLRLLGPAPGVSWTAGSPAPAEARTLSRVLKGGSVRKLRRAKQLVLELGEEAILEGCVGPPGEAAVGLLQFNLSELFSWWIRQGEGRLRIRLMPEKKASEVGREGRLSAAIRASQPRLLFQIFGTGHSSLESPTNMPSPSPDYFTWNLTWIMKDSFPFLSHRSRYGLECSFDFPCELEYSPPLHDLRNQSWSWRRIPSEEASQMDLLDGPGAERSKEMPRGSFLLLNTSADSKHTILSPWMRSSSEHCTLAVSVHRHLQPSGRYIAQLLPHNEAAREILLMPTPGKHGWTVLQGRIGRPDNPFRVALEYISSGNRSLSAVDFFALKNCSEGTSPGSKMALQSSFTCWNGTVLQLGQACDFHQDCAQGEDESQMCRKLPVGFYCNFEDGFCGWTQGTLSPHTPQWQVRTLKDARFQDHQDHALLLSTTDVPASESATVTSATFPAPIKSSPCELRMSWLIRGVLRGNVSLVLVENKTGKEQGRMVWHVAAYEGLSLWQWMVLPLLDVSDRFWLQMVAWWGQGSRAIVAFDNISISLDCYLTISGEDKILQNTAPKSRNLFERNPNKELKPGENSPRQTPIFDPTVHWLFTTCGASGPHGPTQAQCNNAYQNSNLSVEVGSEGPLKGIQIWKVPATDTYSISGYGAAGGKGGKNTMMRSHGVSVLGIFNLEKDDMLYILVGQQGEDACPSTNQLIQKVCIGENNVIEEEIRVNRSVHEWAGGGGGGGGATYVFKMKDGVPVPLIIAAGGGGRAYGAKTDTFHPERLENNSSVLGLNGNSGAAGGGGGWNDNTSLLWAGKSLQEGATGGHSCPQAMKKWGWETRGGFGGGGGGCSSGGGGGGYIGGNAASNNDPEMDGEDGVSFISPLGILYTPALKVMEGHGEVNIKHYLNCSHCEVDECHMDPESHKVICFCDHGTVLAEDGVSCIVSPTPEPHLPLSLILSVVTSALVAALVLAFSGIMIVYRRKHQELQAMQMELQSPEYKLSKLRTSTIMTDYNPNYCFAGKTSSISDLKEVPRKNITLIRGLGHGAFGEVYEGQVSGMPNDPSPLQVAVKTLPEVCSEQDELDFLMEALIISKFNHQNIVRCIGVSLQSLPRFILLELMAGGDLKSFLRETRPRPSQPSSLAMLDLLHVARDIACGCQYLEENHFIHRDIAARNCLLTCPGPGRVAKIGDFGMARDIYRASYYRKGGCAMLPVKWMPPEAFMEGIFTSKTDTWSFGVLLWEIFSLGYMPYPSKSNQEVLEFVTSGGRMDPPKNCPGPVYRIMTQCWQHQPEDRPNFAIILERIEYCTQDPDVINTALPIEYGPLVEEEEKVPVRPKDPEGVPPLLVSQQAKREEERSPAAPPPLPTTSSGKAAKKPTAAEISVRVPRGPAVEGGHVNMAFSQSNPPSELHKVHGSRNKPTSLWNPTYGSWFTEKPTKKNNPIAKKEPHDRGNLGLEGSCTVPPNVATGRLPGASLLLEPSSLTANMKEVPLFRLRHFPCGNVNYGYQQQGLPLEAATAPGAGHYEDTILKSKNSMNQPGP
Sequence of Flt1(h) (P17948 27-1338): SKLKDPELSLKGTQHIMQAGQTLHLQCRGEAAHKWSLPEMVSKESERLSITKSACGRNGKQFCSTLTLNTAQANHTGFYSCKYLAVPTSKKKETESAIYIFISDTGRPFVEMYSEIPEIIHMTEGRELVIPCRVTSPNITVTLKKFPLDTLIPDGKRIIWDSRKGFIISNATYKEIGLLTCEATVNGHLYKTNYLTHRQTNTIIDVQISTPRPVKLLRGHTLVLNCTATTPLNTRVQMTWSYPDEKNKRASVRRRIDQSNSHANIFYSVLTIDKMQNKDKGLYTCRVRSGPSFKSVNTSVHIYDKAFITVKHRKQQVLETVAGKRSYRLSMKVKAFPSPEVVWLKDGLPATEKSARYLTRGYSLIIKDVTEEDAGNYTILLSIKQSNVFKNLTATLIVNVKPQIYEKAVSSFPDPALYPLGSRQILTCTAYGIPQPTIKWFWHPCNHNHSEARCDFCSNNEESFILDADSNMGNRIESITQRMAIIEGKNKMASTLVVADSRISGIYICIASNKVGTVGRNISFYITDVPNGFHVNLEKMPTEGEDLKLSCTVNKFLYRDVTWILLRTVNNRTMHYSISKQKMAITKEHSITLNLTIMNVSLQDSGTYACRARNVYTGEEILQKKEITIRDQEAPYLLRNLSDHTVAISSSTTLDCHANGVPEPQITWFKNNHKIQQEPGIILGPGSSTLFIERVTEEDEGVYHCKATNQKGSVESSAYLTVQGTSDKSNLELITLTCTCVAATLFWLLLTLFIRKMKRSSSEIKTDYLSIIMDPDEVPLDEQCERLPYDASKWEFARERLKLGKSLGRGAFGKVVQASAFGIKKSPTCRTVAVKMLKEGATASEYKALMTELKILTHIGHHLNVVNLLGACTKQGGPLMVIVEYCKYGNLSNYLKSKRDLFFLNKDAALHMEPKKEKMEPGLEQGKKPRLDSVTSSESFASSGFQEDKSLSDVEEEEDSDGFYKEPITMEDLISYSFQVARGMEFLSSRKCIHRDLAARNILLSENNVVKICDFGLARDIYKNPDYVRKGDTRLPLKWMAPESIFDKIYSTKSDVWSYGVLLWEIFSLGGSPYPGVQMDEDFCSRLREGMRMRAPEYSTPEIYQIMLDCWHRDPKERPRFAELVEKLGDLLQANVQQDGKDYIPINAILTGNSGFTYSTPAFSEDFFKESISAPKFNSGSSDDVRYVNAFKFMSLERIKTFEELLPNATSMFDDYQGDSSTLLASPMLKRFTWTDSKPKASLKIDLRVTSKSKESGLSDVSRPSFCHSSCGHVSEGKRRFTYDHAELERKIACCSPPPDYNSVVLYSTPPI

Consider `Nc1n[nH]c2ccc(-c3ccnc4[nH]c(-c5ccccc5)cc34)cc12` [Compound 4], for which the inhibition at 1 µM on ALK(h) was 56%; on FGFR3(h), 77%; at cSRC(h), 42%; against Plk1(h), -5%; on SAPK4(h), 87%; against ACK1(h) it was 83%. Besides, the inhibition at 1 µM was 25% against PDK1(h); 48% against Lck(h); -8% against CaMKIδ(h); 13% against ROCK-I(h); 86% against CDK2/cyclinE(h); 5% at NEK2(h). In addition, the inhibition at 1 µM at Flt1(h) is 94%; against SAPK3(h), 99%.

On to `Nc1n[nH]c2ccc(-c3ccnc4[nH]c(-c5cccc(OCc6ccccc6)c5)cc34)cc12` [Compound 5r [SU1261]], for which the inhibition at 1 µM is 27% against ALK(h); 41% against FGFR3(h); 26% at cSRC(h); -1% against Plk1(h); 18% on SAPK4(h); 41% on ACK1(h). Besides, the inhibition at 1 µM against PDK1(h) is 7%; at Lck(h), 34%; at CaMKIδ(h), 9%; against ROCK-I(h), 28%; on CDK2/cyclinE(h), 37%; against NEK2(h) it was 4%. For the same compound, the results for the inhibition at 1 µM on Flt1(h) and at SAPK3(h) were 58% and 49%, respectively.

As to `Nc1n[nH]c2ccc(-c3ccnc4[nH]c(-c5ccnc(OCc6ccccc6)c5)cc34)cc12` [Compound 6g [SU1349]], the inhibition at 1 µM against ALK(h) was 5%; against FGFR3(h) it was 0%; against cSRC(h), -28%; against Plk1(h) it was 2%; against SAPK4(h), 10%; at ACK1(h), 17%. Further, the inhibition at 1 µM is 18% against PDK1(h); -19% against Lck(h); 24% on CaMKIδ(h); 10% on ROCK-I(h); 29% against CDK2/cyclinE(h); 8% at NEK2(h). Besides, the inhibition at 1 µM on Flt1(h) is 6%; at SAPK3(h), 44%.
